Data: patent US20020164620A1, “Method for identifying compounds modulating sister chromatid separation” (Boehringer Ingelheim International GmbH, priority 2001, published 2002)
“Also recorded” adds a separate entry of the source. No end group written: not given here. *: point of attachment. acyloxymethyl ketone = C-terminal acyloxymethyl ketone; Biotin = O=C1N[C@H]2[C@H](CS[C@H]2CCCCC(=O)*)N1

What was measured:
human separase [1] = experiment: SCC1 in vitro cleavage assay; assay type: biochemical
Protocol: 30 microliter beads were incubated with 40 μg bacterially expressed wildtype securin, destruction box deleted form of securin (Gmachl et al., 2000) or BSA diluted in XB+1 mM DTT for 40 min at RT. Subsequently the beads were washed with XB+1 mM DTT and with TBS+0.5 M NaCl+1 mM DTT+0.5% TWEEN20, followed by one wash with XB+1 mM DTT. To control the rebinding of securin an aliquot of 5 μl was taken per assay and subsequently analysed by immunoblotting with antibodies against separase and securin.
The beads were used for the SCC1 in vitro cleavage assay: 20 μl beads were mixed with 30 μl of the following SCC1 in vitro translation mix (SCC1 myc IVT+1 μl PLK-GST+0.3 μl […], 0.3 μl 100 mM ATP, 0.12 μl 250 mM EGTA, 13.78 μl XB+1 mM DTT) and incubated at 22° C. and 1200 rpm. 5 μl were taken per time point, the reaction was stopped by addition of SDS loading buffer. Samples were analyzed by immunoblotting with mouse monoclonal antibodies against myc (9E10).
(§1) B. Separase immunoprecipitates were incubated with 100 μM Biotin-SVEQGR-amk or with DMSO prior mitotic activation. Incubation for 10 minutes, 22° C. and 1000 rpm. After washing twice in XB+1 mM DTT the activation was performed in mitotic Xenopus egg extracts.
(§2) Interphase Xenopus egg extracts were driven into mitosis in the presence of 1 mM Biotin-SVEQGR-amk or DMSO. Those mitotic Xenopus egg extracts were used to activate a batch of separase immunoprecipitates.

human separase [2] = experiment: Covalent labelling of separase forms by biotin peptide (avidin blot); assay type: binding
Protocol: as §1, §2
Biotin labeled peptides were detected via immunoblotting according to Faleiro et al., 1997.
C. Mitotically activated separase immunoprecipitates were preincubated with either 8 μg recombinant securin or with 8 μg of a C-terminal truncated version of cyclinB in 100 μl XB+1 mM DTT for 30 min at 22° C. and 1250 rpm. Subsequently the beads were washed twice with TBS+0.5 M NaCl+1 mM DTT+0.5% Tween 20 and twice with XB+1 mM DTT. Thereafter beads were incubated with 100 μl of 100 μM Bio-DREIMR-amk in XB+[…]. After 10 min incubation at 22° C. and 1250 rpm beads were again washed and analyzed by immunoblotting.
FIG. 4B: Separase IPs (see A) were either preincubated with Biotin-SVEQGR-amk (preinc. with inh. peptide) or with DMSO (preinc. with DMSO), subsequently washed and aliquots were taken. Thereafter they were incubated in mitotic Xenopus egg extracts and washed again. Samples were taken for analysis (1i, 1c). Separase IPs were activated either in mitotic Xenopus egg extracts which were driven into mitosis in the presence of Biotin-SVEQGR-amk or DMSO, subsequently washed and aliquots were taken for analysis (2i, 2c). Already mitotically activated separase IPs (see A) were incubated with Biotin-SVEQGR-amk or DMSO, thereafter washed and aliquots were taken for analysis (3i, 3c). All samples were analysed by immunoblotting with avidin.
FIG. 4D: Activated separase immunoprecipitates bound by antibodies against the C-terminus of separase to beads were first incubated with recombinant securin or, for control, with recombinant truncated cyclinB. […] Thereafter, the immunoprecipitates were again washed and analyzed by immunoblotting.

human separase [3] = molecular target: human separase (Homo sapiens, UniProt Q14674); conditions: same concentration at which SCC1 cleavage was inhibited
Protocol: A. Mitotically activated separase immunoprecipitates were preincubated with yeast peptides (Uhlmann et al., 2000) before they were used in the SCC1-cleavage assay. Biotin-SVEQGR-amk or Biotin-SVEQGR-cmk were used at different concentration (0.1, 1, 10, 100, 1000 μM in XB+0.5 mM DTT). Separase immunoprecipitates were incubated for 10 minutes, 22° C. and 1200 rpm. The SCC1 in vitro cleavage assay was performed after washing once with XB+0.5 mM DTT (see above). Human peptides, Biotin-DREIMR-amk or DREIMR-amk, were diluted and used as above described for the yeast peptides.

[4] = substance added to mitotically activated separase immunoprecipitates before SCC1-myc reaction mix
[5] = activation in mitotic Xenopus extracts in presence of peptide (lane 2i)

human separase, sequence (Q14674 1536-2120 limits assumed): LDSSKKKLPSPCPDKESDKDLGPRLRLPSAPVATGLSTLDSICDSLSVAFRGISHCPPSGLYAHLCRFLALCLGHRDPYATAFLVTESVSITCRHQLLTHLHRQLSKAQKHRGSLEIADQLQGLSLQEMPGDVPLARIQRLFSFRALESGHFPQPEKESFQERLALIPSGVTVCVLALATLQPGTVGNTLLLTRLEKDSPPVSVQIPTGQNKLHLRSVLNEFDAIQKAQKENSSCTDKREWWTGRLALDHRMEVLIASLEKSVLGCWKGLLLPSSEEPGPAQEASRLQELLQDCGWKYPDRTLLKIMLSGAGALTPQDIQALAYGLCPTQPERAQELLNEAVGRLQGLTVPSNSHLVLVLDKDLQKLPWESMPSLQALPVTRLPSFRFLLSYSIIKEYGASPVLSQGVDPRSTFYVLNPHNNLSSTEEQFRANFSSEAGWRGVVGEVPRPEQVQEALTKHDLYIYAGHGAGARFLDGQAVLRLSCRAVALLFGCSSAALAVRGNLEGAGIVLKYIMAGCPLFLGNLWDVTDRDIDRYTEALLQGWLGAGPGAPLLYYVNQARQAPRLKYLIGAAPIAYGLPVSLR
human separase (Homo sapiens, UniProt Q14674), sequence (Q14674 whole entry): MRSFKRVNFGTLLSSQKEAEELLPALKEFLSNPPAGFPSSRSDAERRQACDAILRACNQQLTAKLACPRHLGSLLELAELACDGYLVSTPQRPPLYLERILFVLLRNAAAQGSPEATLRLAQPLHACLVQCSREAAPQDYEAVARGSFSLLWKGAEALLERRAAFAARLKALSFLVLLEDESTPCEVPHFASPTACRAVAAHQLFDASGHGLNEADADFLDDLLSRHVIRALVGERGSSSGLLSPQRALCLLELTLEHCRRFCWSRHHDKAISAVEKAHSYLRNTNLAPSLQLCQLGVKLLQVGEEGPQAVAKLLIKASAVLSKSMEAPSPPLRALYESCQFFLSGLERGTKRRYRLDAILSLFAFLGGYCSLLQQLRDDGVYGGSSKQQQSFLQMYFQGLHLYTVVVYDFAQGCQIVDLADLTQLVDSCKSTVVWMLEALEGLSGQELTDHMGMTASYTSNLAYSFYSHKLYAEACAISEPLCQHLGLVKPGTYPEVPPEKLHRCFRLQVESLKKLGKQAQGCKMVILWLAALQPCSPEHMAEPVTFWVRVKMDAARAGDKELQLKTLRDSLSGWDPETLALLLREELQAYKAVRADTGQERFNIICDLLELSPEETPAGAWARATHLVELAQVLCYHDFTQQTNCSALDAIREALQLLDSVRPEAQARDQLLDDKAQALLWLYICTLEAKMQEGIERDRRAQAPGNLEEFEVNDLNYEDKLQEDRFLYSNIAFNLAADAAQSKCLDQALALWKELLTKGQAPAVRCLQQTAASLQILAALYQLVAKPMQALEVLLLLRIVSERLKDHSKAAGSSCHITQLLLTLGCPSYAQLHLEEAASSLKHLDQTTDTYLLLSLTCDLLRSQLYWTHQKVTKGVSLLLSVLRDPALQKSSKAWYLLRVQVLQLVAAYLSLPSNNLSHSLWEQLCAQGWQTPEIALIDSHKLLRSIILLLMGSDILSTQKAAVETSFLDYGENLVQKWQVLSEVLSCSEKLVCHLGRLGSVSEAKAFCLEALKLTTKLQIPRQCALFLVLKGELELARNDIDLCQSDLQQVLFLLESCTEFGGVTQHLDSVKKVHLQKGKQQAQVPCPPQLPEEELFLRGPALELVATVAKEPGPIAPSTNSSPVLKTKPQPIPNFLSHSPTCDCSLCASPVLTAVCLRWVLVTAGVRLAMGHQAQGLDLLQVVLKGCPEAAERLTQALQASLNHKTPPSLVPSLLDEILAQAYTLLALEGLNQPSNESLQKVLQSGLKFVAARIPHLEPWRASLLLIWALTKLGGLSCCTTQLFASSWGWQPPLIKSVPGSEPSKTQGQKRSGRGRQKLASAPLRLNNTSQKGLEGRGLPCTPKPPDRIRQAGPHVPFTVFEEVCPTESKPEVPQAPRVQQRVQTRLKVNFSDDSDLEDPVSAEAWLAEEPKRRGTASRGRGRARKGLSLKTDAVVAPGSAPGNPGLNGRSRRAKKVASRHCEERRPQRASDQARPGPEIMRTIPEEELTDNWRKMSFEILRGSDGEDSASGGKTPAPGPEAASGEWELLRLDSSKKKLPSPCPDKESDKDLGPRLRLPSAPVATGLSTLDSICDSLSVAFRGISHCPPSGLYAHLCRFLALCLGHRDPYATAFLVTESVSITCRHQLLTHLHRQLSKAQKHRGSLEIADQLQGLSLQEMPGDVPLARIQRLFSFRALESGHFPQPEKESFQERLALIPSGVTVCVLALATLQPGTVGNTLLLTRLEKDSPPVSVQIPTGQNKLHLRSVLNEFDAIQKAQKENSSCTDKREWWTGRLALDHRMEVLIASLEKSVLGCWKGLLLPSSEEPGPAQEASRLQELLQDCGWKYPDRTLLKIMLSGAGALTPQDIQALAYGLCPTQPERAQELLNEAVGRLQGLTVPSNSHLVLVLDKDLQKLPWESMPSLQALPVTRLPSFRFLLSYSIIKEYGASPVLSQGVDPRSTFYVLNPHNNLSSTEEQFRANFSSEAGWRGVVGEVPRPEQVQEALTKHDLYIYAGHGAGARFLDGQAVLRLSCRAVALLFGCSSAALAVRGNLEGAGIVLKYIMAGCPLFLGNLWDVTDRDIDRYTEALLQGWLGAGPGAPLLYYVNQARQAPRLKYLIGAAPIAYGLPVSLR

| Substance | SCC1 cleavage by separase (human separase [1]; [4]) | relative effectiveness of the two yeast peptide inhibitors (human separase [1]) | SCC1 cleavage by separase (human separase [1]; [5]) | SCC1 cleavage by separase (human separase [1]; peptide added before activation and washed away before mitotic Xenopus extract (lane 1i)) | separase forms labeled by the peptide (human separase [2]; [5]) | separase forms bound by the peptide (human separase [2]; peptide added after activation in mitotic Xenopus extracts (lane 3i)) | separase forms labeled by the peptide (human separase [2]; peptide added before activation in mitotic Xenopus extracts (lane 1i)) | formation of the p55 cleavage product of human separase (human separase [3]) |
| --- | --- | --- | --- | --- | --- | --- | --- | --- |
| DREIMR-amk: peptide inhibitor based on the cleavage recognition site of human SCC1, DREIMR, acyloxymethyl ketone (DREIMR-{acyloxymethyl ketone}) | able to inhibit separase at a similar concentration as the peptide inhibitors derived from yeast |  |  |  |  |  |  |  |
| Bio-SVEQGR-amk: synthetic peptide with budding yeast SCC1 cleavage site SVEQGR, C-terminal acyloxymethyl ketone, N-terminal biotin (Biotin-SVEQGR-{acyloxymethyl ketone}) | inhibited SCC1 cleavage by separase; also recorded: able to block the ability of separase to cleave SCC1 | the more effective one of the two yeast peptide inhibitors | separase was unable to cleave SCC1 | separase could be activated normally to cleave SCC1 | both the cleaved forms of separase and full-length separase were covalently labeled | bound exclusively to the cleaved forms of human separase | only the small amount of p60 that is already present in these immunoprecipitates was labeled | largely inhibited |
